Source: paper PMC6095874, “Discovery of cationic nonribosomal peptides as Gram-negative antibiotics through global genome mining” (Nature Communications, 2018)
≈ marks a conversion by molar mass, not a printed value. Where two headings read alike, the source gives them in different places. Where a SMILES comes first, the peptide text is derived from it. Bridges are numbered along the chain shown (N, C = ends). [ ]: non-standard residue; d: D form. The star is where a group is joined. Octanoyl(7-Me) = CC(C)CCCCCC(=O)*; dOrn = NCCC[C@@H](N)C(=O)O; X1 = CC[C@H](C)CCCCC(=O)*; Orn = NCCC[C@H](N)C(=O)O; Dab = NCC[C@H](N)C(=O)O

Columns and labels:
[1] = test system: Escherichia coli ATCC 25922; experiment: microbe, parasite or virus in culture; format: cell-based
Description: (§1) MIC was determined by broth microdilution according to CLSI guidelines. The test medium for most species was Mueller–Hinton broth (MHB). Bacteria were grown overnight to early stationary phase and adjusted in MHB to 5.0 × 10^5 c.f.u. mL^−1 in the wells of 96-well microtiter plates (Falcon® 96-Well Flat-Bottom Microplate, Tissue Culture-Treated), mixed with varying concentrations of test compounds and incubated at 37 °C for 24 h. Cell growth was evaluated by measuring the optical density at 595 nm (Thermo Scientific Multiskan FC multiplate photometer) (Waltham, MA, USA), and the MIC was defined as the lowest compound concentration at which no bacterial growth was observed. MHBs containing 10% fetal bovine serum (Gibco), 21 mM MgCl, or 1.0 mg mL^−1 LPS (lipopolysaccharides from E. coli O55:B5, Sigma-Aldrich) was used to test their inhibitory effects.

[2] = test system: Pseudomonas aeruginosa PAO1; format: cell-based
Description: as §1

[3] = test system: Colistin-resistant E. coli (E. coli ATCC 25922 carrying mcr-1); experiment: MIC by broth microdilution; format: cell-based, Escherichia coli; settings: MHB, 37 °C, 24 h
Description: as §1

rabbit erythrocytes = settings: concentrations up to 128 μg mL^−1, 2% (v/v) rabbit erythrocytes in PBS, 1 h, 37 °C, absorbance 570 nm, vs 10% Triton X-100
Description: Hemolytic activity was determined with red blood cells freshly isolated from healthy rabbits. […] The cells were incubated for 1 h at 37 °C and centrifuged for 5 min at 10,000 × g. The supernatant was transferred to a 96-well plate and the absorbance was measured at a wavelength of 570 nm with a Thermo Scientific Multiskan FC multiplate photometer. The absorbance relative to the positive control, which was treated with 10% Triton X-100, was defined as the percentage of hemolysis.

Acinetobacter baumannii = experiment: MIC by broth microdilution; format: cell-based; settings: Supplementary Table 1
Description: as §1

[4] = test system: Klebsiella pneumoniae NRRL-B-408; experiment: MIC by broth microdilution; format: cell-based; settings: Supplementary Table 1; Kp = Klebsiella pneumoniae NRRL-B-408
Description: as §1

Bacillus subtilis 168 = experiment: MIC by broth microdilution; format: cell-based; settings: Supplementary Table 1; Bs = B. subtilis 168
Description: as §1

[5] = test system: Enterobacter cloacae NRRL-B-413; experiment: MIC by broth microdilution; format: cell-based; settings: Supplementary Table 1; En = Enterobacter cloacae NRRL-B-413
Description: as §1

E. coli TOP10 cells [6] = experiment: Time-kill assay; format: cell-based, Escherichia coli
Description: (§2) An overnight culture of E. coli TOP10 cells was diluted 1:10,000 in MHB and incubated at 37 °C with agitation at 180 rpm for 2 h (early exponential). The bacteria were then challenged with brevicidine (20 μg mL^−1), laterocidine (20 μg mL^−1), or polymyxin B (10 μg mL^−1) at ten times the MIC at room temperature without shaking. An untreated sample of cells was used as a negative control. At intervals, 10 μL aliquots were removed, centrifuged at 10,000 × g for 1 min and resuspended in 1.0 mL of sterile PBS. Tenfold serially diluted suspensions were plated on MHB agar plates and incubated at 37 °C overnight. Colonies were counted and the number of c.f.u. per mL was calculated. For analysis of lysis, 300 μL of culture (OD600 = 1.0) were treated with antibiotics at ten times the MIC for 24 h. Experiments were performed in triplicate.

E. coli ATCC 25922 [7] = experiment: Neutropenic mouse thigh infection model; format: in vivo; settings: laterocidine 15 mg kg^−1 twice s.c., five mice, after 26 h, Mann–Whitney P < 0.01
Description: Given the low risk of resistance and the attractive mode of action of 1–2, an animal efficacy study was then performed in a mouse thigh model. Mice were intramuscularly infected with 1.50 × 10^6 c.f.u. of E. coli ATCC 25922. Two hours post infection, brevicidine (30 mg kg^−1) or laterocidine (15 mg kg^−1) was subcutaneously injected at two doses. […] In particular, compound 1 was highly efficacious in mice infected with E. coli and caused a 5 log10 reduction in c.f.u. in the thigh compared to the vehicle control after 24 h (Fig. 4f).
In vivo activities of brevicidine and laterocidine were tested using the mouse thigh infection model. Animal studies were performed by Pharmacology Discovery Services Taiwan Ltd. in general accordance with standard guidelines on animal welfare[38] in an AAALAC-accredited facility. The protocol was reviewed and approved by the Institutional Animal Care and Use Committee. Groups of five female-specific pathogen-free ICR (CD-1) mice weighing 22 ± 2 g (~5 weeks of age) were used. Animals were immunosuppressed with two intraperitoneal injections of cyclophosphamide, the first at 150 mg kg^−1 4 days before infection (day −4) and the second at 100 mg kg^−1 1 day before infection (day −1). On day 0, animals were inoculated intramuscularly (0.1 mL per thigh) in the right thigh with an E. coli ATCC 25922 suspension. Vehicle (10% DMSO, 1% Tween 80, 0.9% NaCl) and antibiotics were then subcutaneously injected 2 and 8 h later. Due to the limited availability of compounds 1–2, only one concentration of 1 (30 mg kg^−1) or 2 (15 mg kg^−1) was used in the present study. Precisely 26 h after inoculation, animals were euthanized by CO2 asphyxiation before their right thigh muscles were harvested. The removed muscles were homogenized in 5 mL of PBS, pH 7.4, with a Polytron homogenizer. Homogenates in the amount of 0.1 mL were used for serial tenfold dilutions and plated onto a nutrient agar medium for colony count (in c.f.u. g^−1) determination. No randomization or blinding was necessary for the animal infection models, and no samples were excluded.

E. coli = experiment: Lysis assay; format: cell-based, Escherichia coli; settings: ten times the MIC, culture OD600 = 1.0, 24 h
Description: as §2

Human HeLa cells = settings: concentrations up to 128 μg mL^−1, 48 h, 37 °C, MTT, absorbance 570 nm
Description: Human HeLa cells were used in the assay. Ninety μL of 1 × 10^5 mL^−1 cells were placed into the wells of 96-microwell plates. After 12 h, 10 μL of a medium containing test compounds at various concentrations were added to the cells which were then incubated at 37 °C for 48 h. Afterward, the supernatant was removed and 20 μL of MTT (3-(4,5-Dimethylthiazol-2-yl)-2,5-Diphenyltetrazolium Bromide) (2.5 mg mL^−1) in PBS were added to each well. After incubation at 37 °C for 3 h, 80 μL of dimethyl sulfoxide (DMSO) were added to each well and incubated for an additional 15 min. The absorbance was then measured at 570 nm with a Thermo Scientific Multiskan FC multiplate photometer.

Gram-negative bacteria = format: cell-based
Description: as §1

[8] = test system: Staphylococcus aureus (MRSA); format: cell-based; settings: 24 h
Description: as §1

[9] = test system: K. pneumoniae NRRL-B-3521; format: cell-based, Klebsiella pneumoniae; settings: NRRL-B-3521, 24 h
Description: as §1

Candida albicans = format: cell-based; settings: 24 h
Saccharomyces cerevisiae = format: cell-based; settings: 24 h
E. cloacae NRRL-B-425 = format: cell-based, Enterobacter cloacae; settings: NRRL-B-425, 24 h
Description: as §1

E. coli ATCC 25922 [10] = experiment: Resistance acquisition during serial passaging; format: cell-based, Escherichia coli; settings: subinhibitory concentrations, 30-day period, MHB, 37 °C, quadruplicate
Description: E. coli ATCC 25922 was inoculated into MHB overnight at 37 °C with continuous shaking. Cells were diluted 10,000 times in MHB to about 1 × 10^6 c.f.u. mL^−1. Ten µL aliquots were drawn to a 96-well plate containing 90 µL of serially diluted brevicidine, laterocidine, and ciprofloxacin, at final concentrations of 0.5×, 1×, 1.5×, 2×, and 4× MIC. […] Plates with bacteria were incubated at 37 °C without shaking. […] This process was repeated for 30 days, and the final MIC was confirmed by the same antibacterial assay as the one described above. The experiment was performed in quadruplicate, and on each day, the sample that developed the highest resistance was measured to plot the curve. For single-step resistance, E. coli ATCC 25922 cells at 10^8 c.f.u. were plated onto Mueller–Hinton agar containing 4× MIC of brevicidine.

E. coli TOP10 cells [11] = experiment: Bacterial growth kinetics; format: cell-based, Escherichia coli; settings: OD600 of cells exposed to antibiotics (Fig. 4: two times the MIC)
Description: A single fresh colony of E. coli TOP10 cells was inoculated into MHB (5 mL) and grown with shaking at 225 rpm overnight. The bacteria were diluted to 1 × 10^5 c.f.u. mL^−1 in fresh MHB, grown […] to early log-phase (OD600 = 0.15) and treated with the antibiotics of interest in the wells of a 96-well plate. Final antibiotic concentrations varied from one to eight times the MIC. The plate was then incubated at 30 °C overnight, with OD600 measurements taken every 30 s.

`CC[C@H](C)CCCCC(=O)N[C@@H](CCN)C(=O)N[C@H](C(=O)N[C@@H](CCN)C(=O)N[C@H]1CCNC(=O)[C@H]([C@@H](C)O)NC(=O)[C@H](CCN)NC(=O)[C@H](CCN)NC(=O)[C@H](CC(C)C)NC(=O)[C@@H](CC(C)C)NC(=O)[C@H](CCN)NC1=O)[C@@H](C)O` [Colistin, reference compound] (X1-[Dab]T[Dab][Dab][Dab][dL]L[Dab][Dab]T; lactam 4-C (inferred); N-terminus assumed) gave an MIC ([1]; broth microdilution (CLSI), MHB, 5.0 × 10^5 c.f.u. mL^−1, 37 °C, 24 h, OD 595 nm) of 2 µg/mL (≈ 1.71 µM), an MIC ([2]; broth microdilution, MHB, 37 °C, 24 h) of 1 µg/mL (≈ 0.855 µM) and an MIC [3] of 16 µg/mL (≈ 13.7 µM).

`CC[C@H](C)[C@@H]1NC(=O)[C@@H](NC(=O)[C@H](Cc2c[nH]c3ccccc23)NC(=O)[C@@H](CCCN)NC(=O)CNC(=O)[C@H](CCCN)NC(=O)[C@@H](CCCN)NC(=O)[C@@H](Cc2c[nH]c3ccccc23)NC(=O)[C@@H](Cc2ccc(O)cc2)NC(=O)[C@@H](CO)NC(=O)CCCCCC(C)C)[C@@H](C)OC(=O)CNC(=O)CNC(=O)[C@H](CC(N)=O)NC1=O` [Compound 2, laterocidine] ({Octanoyl(7-Me)}-[dS][dY][dW][dOrn][Orn]G[dOrn]WTINGG; ester 9-C) was tested, and the “lysis of erythrocytes (hemolysis)” value (rabbit erythrocytes) was “neither caused the lysis of erythrocytes”, the “MIC, Ab” value (Acinetobacter baumannii) was 4 µg/mL (≈ 2.49 µM) and the “MIC, Kp” value [4] was 4 µg/mL (≈ 2.49 µM). The “MIC, Bs” value (Bacillus subtilis 168) was 32 µg/mL (≈ 19.9 µM), the “MIC, En” value [5] was 2 µg/mL (≈ 1.25 µM) and the “bactericidal action against E. coli” value (E. coli TOP10 cells [6]; as revealed by growth kinetics, time-kill assay and lysis assay) was “bactericidal”. For the same molecule, the “cell viability in time-kill assay” value (E. coli TOP10 cells [6]; ten times the MIC, early exponential cells, room temperature, c.f.u. counts, triplicate) was “significant reduction after 30 min”, the “viable bacteria in thigh” value (E. coli ATCC 25922 [7]) was “reduced number of viable bacteria” and the “lysis of E. coli cells” value (E. coli) was “completely lysed”. For the same molecule, the “MIC, Ec” value ([1]; Supplementary Table 1, Ec = Escherichia coli ATCC 25922) was 2 µg/mL (≈ 1.25 µM), the “toxicity against the human cell line HeLa” value (Human HeLa cells) was “nor showed significant toxicity” and the “MIC values against Gram-negative bacteria” value (Gram-negative bacteria; 24 h) was 0.66 to 10.5 µM. The “MIC values against Gram-negative bacteria” value (Gram-negative bacteria; range over Gram-negative strains incl. P. aeruginosa and colistin-resistant E. coli) was 1 to 16 µg/mL, the “MIC, Pa” value ([2]; Supplementary Table 1, Pa = Pseudomonas aeruginosa PAO1) was 2 µg/mL (≈ 1.25 µM) and the MIC [8] was over 64 µg/mL. The MIC [9] was 4 µg/mL (≈ 2.49 µM), the MIC (Candida albicans) was over 64 µg/mL and the MIC (Saccharomyces cerevisiae) was over 64 µg/mL. The MIC (E. cloacae NRRL-B-425) was 2 µg/mL (≈ 1.25 µM), the “resistance development during serial passaging” value (E. coli ATCC 25922 [10]) was “did not develop resistance” and the “growth kinetics of E. coli cells exposed to compound” value (E. coli TOP10 cells [11]) was “grew at a reduced rate for 30 min”. It also gave an MIC [3] of 2 µg/mL (≈ 1.25 µM).
